Assay results as given in patent US20250376483A1, “PRODRUGS OF PAN-KRAS INHIBITORS” (Mirati Therapeutics, Inc., priority 2022, published 2025).

What was measured:
[1] = Plasma Stability Assay (human plasma); type: in vitro ADME; details: both sexes; pooled human plasma, heparin, final conc. 2 μM, 37° C., 0-120 min; read-out: Human Plasma Stability t1/2
Method in brief: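 Compound at 2 μM final in pooled heparinised plasma (3 male, 3 female), incubated at 37° C with sampling at 0, 10, 30, 60 and 120 min. Acetonitrile stop, LC-MS/MS; % remaining from analyte/internal-standard peak area ratio relative to T0.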

[2] = Whole Blood Stability Assay (mouse whole blood); type: in vitro ADME; details: CD-1 mouse blood, EDTA-K2, final conc. 2 μM, 37° C., 0-120 min; for half-life at 2 μM: male, fresh whole blood, read-out: Mouse Whole Blood Stability t1/2
Method in brief: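 Compound at 2 μM final was incubated at 37 °C in fresh EDTA-K2 blood from male CD-1 mice. Samples at 0, 10, 30, 60 and 120 min were protein-precipitated with acetonitrile and analysed by LC-MS/MS. % remaining was derived from analyte/internal-standard peak area ratios.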

half-life at 2 μM [1] [min] | half-life at 2 μM [2] [min] | Mouse Whole Blood Stability t1/2 [2] [min] | SMILES
> 289 | 2 |  | CCc1c(F)ccc2cc(OC(=O)C3(C)CCC3)cc(N3CCc4c(nc(OC[C@@]56CCCN5C[C@H](F)C6)nc4N4CCC[C@]5(C4)NC(=O)NC5=O)C3)c12 [Example 61, 4-(4-((R)-2,4-dioxo-1,3,7-triazaspiro[4.5]decan-7-yl)-2-(((2R,7aS)-2-fluorotetrahydro-1H-pyrrolizin-7a(5H)-yl)methoxy)-5,8-dihydropyrido[3,4-d]pyrimidin-7(6H)-yl)-5-ethyl-6-fluoronaphthalen-2-yl 1-methylcyclobutane-1-carboxylate]
38 |  | 1 | CCc1c(F)ccc2cc(OC(=O)C3(C)COC3)cc(N3CCc4c(nc(OC[C@@]56CCCN5C[C@H](F)C6)nc4N4CCC[C@]5(C4)NC(=O)NC5=O)C3)c12 [Example 62, 4-(4-((R)-2,4-dioxo-1,3,7-triazaspiro[4.5]decan-7-yl)-2-(((2R,7aS)-2-fluorotetrahydro-1H-pyrrolizin-7a(5H)-yl)methoxy)-5,8-dihydropyrido[3,4-d]pyrimidin-7(6H)-yl)-5-ethyl-6-fluoronaphthalen-2-yl 3-methyloxetane-3-carboxylate]
> 289 | 13 |  | CCc1c(F)ccc2cc(OC(=O)C34CC5CC(CC(C5)C3)C4)cc(N3CCc4c(nc(OC[C@@]56CCCN5C[C@H](F)C6)nc4N4CCC[C@]5(C4)NC(=O)NC5=O)C3)c12 [Example 63, 4-(4-((R)-2,4-dioxo-1,3,7-triazaspiro[4.5]decan-7-yl)-2-(((2R,7aS)-2-fluorotetrahydro-1H-pyrrolizin-7a(5H)-yl)methoxy)-5,8-dihydropyrido[3,4-d]pyrimidin-7(6H)-yl)-5-ethyl-6-fluoronaphthalen-2-yl (3r,5r,7r)-adamantane-1-carboxylate]
33 | 2 |  | CCc1c(F)ccc2cc(OC(=O)C3CCC3)cc(N3CCc4c(nc(OC[C@@]56CCCN5C[C@H](F)C6)nc4N4CCC[C@]5(C4)NC(=O)NC5=O)C3)c12 [Example 64, 4-(4-((R)-2,4-dioxo-1,3,7-triazaspiro[4.5]decan-7-yl)-2-(((2R,7aS)-2-fluorotetrahydro-1H-pyrrolizin-7a(5H)-yl)methoxy)-5,8-dihydropyrido[3,4-d]pyrimidin-7(6H)-yl)-5-ethyl-6-fluoronaphthalen-2-yl cyclobutanecarboxylate]
> 289 | 7 |  | CCc1c(F)ccc2cc(OC(=O)C34CCC(CC3)CC4)cc(N3CCc4c(nc(OC[C@@]56CCCN5C[C@H](F)C6)nc4N4CCC[C@]5(C4)NC(=O)NC5=O)C3)c12 [Example 66, 4-(4-((R)-2,4-dioxo-1,3,7-triazaspiro[4.5]decan-7-yl)-2-(((2R,7aS)-2-fluorotetrahydro-1H-pyrrolizin-7a(5H)-yl)methoxy)-5,8-dihydropyrido[3,4-d]pyrimidin-7(6H)-yl)-5-ethyl-6-fluoronaphthalen-2-yl bicyclo[2.2.2]octane-1-carboxylate]
267 |  | 1 | CCc1c(F)ccc2cc(OC(=O)C34CCC(C3)C4)cc(N3CCc4c(nc(OC[C@@]56CCCN5C[C@H](F)C6)nc4N4CCC[C@]5(C4)NC(=O)NC5=O)C3)c12 [Example 67, 4-(4-((R)-2,4-dioxo-1,3,7-triazaspiro[4.5]decan-7-yl)-2-(((2R,7aS)-2-fluorotetrahydro-1H-pyrrolizin-7a(5H)-yl)methoxy)-5,8-dihydropyrido[3,4-d]pyrimidin-7(6H)-yl)-5-ethyl-6-fluoronaphthalen-2-yl bicyclo[2.1.1]hexane-1-carboxylate]

SMILES | half-life at 2 μM [1] [min] | half-life at 2 μM [2] [min] | Mouse Whole Blood Stability t1/2 [2] [min]
CCc1c(F)ccc2cc(OC(=O)N3CCOCC3)cc(N3CCc4c(nc(OC[C@@]56CCCN5C[C@H](F)C6)nc4N4CCC[C@]5(C4)NC(=O)NC5=O)C3)c12 [Example 60, 4-(4-((R)-2,4-dioxo-1,3,7-triazaspiro[4.5]decan-7-yl)-2-(((2R,7aS)-2-fluorotetrahydro-1H-pyrrolizin-7a(5H)-yl)methoxy)-5,8-dihydropyrido[3,4-d]pyrimidin-7(6H)-yl)-5-ethyl-6-fluoronaphthalen-2-yl morpholine-4-carboxylate] | > 289 | 79 | 
